Data reported in US4604380A, “C-23-substituted mycaminosyltylonolide compounds, pharmaceutical compositions and methods of use” (Eli Lilly and Company, priority 1985, dated 1986).
Values after ≈ are worked out from the molar mass of the structure shown. Values joined by “and” are separate entries in the source; they are usually repeats but may differ in a detail not shown here. Identical values can stand only once. Like-named read-outs stand apart in the source and are kept apart here.

Columns and labels:
[1] = system: Streptococcus pneumoniae Park I; assay: microbe, parasite or virus in culture; type: cell-based; conditions: Streptococcus pneumoniae
Method: (§1) The MIC's s in Table III were determined by standard agar-dilution assays. The MIC's in Table IV were obtained using a conventional broth-dilution microtiter test.

[2] = system: Streptococcus sp. 19F; assay: MIC, conventional broth-dilution microtiter test (Table IV); type: cell-based
Method: as §1

[3] = system: Pasteurella hemolytica 41D; assay: as above; type: cell-based; conditions: broth-dilution microtiter; Pasteurella hemolytica 41D; read-out: MIC
Method: as §1

[4] = system: Mycoplasma gallisepticum 29C; assay: as above; type: cell-based; conditions: Mycoplasmoides gallisepticum, 29C
Method: as §1

[5] = system: Pasteurella multocida 22A; assay: as above; type: cell-based; conditions: broth-dilution microtiter; Pasteurella multocida 22A; read-out: MIC
Method: as §1

[6] = system: Staphylococcus aureus 19C; assay: as above; type: cell-based; conditions: broth-dilution microtiter; Staphylococcus aureus 19C; read-out: MIC
Method: as §1

[7] = system: Pasteurella multocida 40G; assay: as above; type: cell-based; conditions: broth-dilution microtiter; Pasteurella multocida 40G; read-out: MIC
Method: as §1

[8] = system: Mycoplasma gallisepticum 36H; assay: as above; type: cell-based; conditions: Mycoplasmoides gallisepticum
Method: as §1

[9] = system: Pasteurella hemolytica 23C; assay: as above; type: cell-based; conditions: broth-dilution microtiter; Pasteurella hemolytica 23C; read-out: MIC
Method: as §1

[10] = system: Mycoplasma gallisepticum 15E; assay: as above; type: cell-based; conditions: Mycoplasmoides gallisepticum; broth-dilution microtiter; Mycoplasma gallisepticum 15E; read-out: MIC
Method: as §1

[11] = system: Mycoplasma hyorhinis 29E; assay: as above; type: cell-based; conditions: broth-dilution microtiter; Mycoplasma hyorhinis 29E; read-out: MIC
Method: as §1

[12] = system: Pasteurella hemolytica 22C; assay: as above; type: cell-based
Method: as §1

[13] = system: Pasteurella multocida 17E; assay: as above; type: cell-based; conditions: broth-dilution microtiter; Pasteurella multocida 17E, bovine isolate; read-out: MIC
Method: as §1

[14] = system: Bordetella bronchisepticum 95B; assay: as above; type: cell-based
Method: as §1

[15] = system: Mycoplasma hyopneumoniae S5972; assay: as above; type: cell-based; conditions: Mesomycoplasma hyopneumoniae
Method: as §1

[16] = system: Pasteurella multocida 68C; assay: as above; type: cell-based; conditions: broth-dilution microtiter; Pasteurella multocida 68C; read-out: MIC
Method: as §1

[17] = system: Mycoplasma synoviae 40A; assay: as above; type: cell-based; conditions: Mycoplasmopsis synoviae
Method: as §1

[18] = system: Pasteurella multocida 60A; assay: as above; type: cell-based; conditions: broth-dilution microtiter; Pasteurella multocida 60A, avian isolate; read-out: MIC
Method: as §1

[19] = system: Streptococcous pneumoniae; assay: ED50 vs. Streptococcous pneumoniae experimental infection in mice (Table VII); type: in vivo; conditions: Mus musculus, sc, subcutaneous, two doses, read-out: ED50 Subcutaneous
Method: (§2) Certain formula 1a compounds have also shown in vivo antimicrobial activity against experimental bacterial infections. When two doses of test compound were administered to mice in experimental infections, the activity observed was measured as an ED50 value [effective dose in mg/kg to protect 50% of the test animals: see Warren Wick, et al., J. Bacteriol. 81, 233-235 (1961)].

[20] = system: Staphylococcus epidermidis EPI1; assay: MIC, standard agar-dilution assay (Table III); type: cell-based; conditions: Staphylococcus epidermidis, EPI1
Method: as §1

[21] = system: Streptococcus Group D 2041; assay: MIC, standard agar-dilution assay (Table III); type: cell-based; conditions: GROUPD2041
Method: as §1

[22] = system: Streptococcus pyogenes C203; assay: MIC, standard agar-dilution assay (Table III); type: cell-based; conditions: agar dilution; Streptococcus pyogenes C203; read-out: MIC
Method: as §1

[23] = system: Staphylococcus aureus S13E; assay: MIC, standard agar-dilution assay (Table III); type: cell-based
Method: as §1

[24] = system: Haemophilus influenzae 76; assay: MIC, standard agar-dilution assay (Table III); type: cell-based; conditions: agar dilution; Haemophilus influenzae 76, ampicillin-resistant strain; read-out: MIC
Method: as §1

[25] = system: Haemophilus influenzae C.L.; assay: MIC, standard agar-dilution assay (Table III); type: cell-based; conditions: agar dilution; Haemophilus influenzae C.L., ampicillin-sensitive strain; read-out: MIC
Method: as §1

[26] = system: Streptococcus Group D X66; assay: MIC, standard agar-dilution assay (Table III); type: cell-based
Method: as §1

[27] = system: Staphylococcus aureus X400; assay: MIC, standard agar-dilution assay (Table III); type: cell-based
Method: as §1

[28] = system: Staphylococcus aureus V41; assay: MIC, standard agar-dilution assay (Table III); type: cell-based; conditions: Staphylococcus aureus V41, penicillin-resistant strain
Method: as §1

[29] = system: Staphylococcus epidermidis 222; assay: MIC, standard agar-dilution assay (Table III); type: cell-based; conditions: agar dilution; Staphylococcus epidermidis 222; read-out: MIC
Method: as §1

[30] = system: Staphylococcus aureus X1.1; assay: MIC, standard agar-dilution assay (Table III); type: cell-based
Method: as §1

[31] = system: Pasteurella multocida; assay: Activity in Pasteurella multocida-infected one-day-old chicks (Table VIII); type: in vivo; conditions: subcutaneous 30 mg/kg × 2, 1 and 4 hours post-challenge, all non-medicated chicks died within 24 hours
Method: Table VIII summarizes the results of tests in which illustrative compounds were evaluated against a Pasteurella infection in one-day-old chicks. The compounds were administered parenterally after challenge of the chicks with Pasteurella multocida (0.1 mL of a 10^-4 dilution of a twenty-hour tryptose broth culture of an avian P. multocida given subcutaneously). In these tests, all non-medicated infected chicks died within 24 hours of Pasteurella challenge. In the tests summarized in Table VIII, the compounds were administered by subcutaneous injection at a dosage of 30 mg/kg, 1 and 4 hours post-challenge of the chicks with P. multocida.

[32] = system: Streptococcus pyogenes; assay: ED50 vs Streptococcus pyogenes experimental infection in mice (Table VI); type: in vivo; conditions: po, two doses, several values = results from more than one test, read-out: ED50 Oral
Method: as §2

[33] = system: Staphylococcus aureus; assay: ED50 vs. Staphylococcus aureus experimental infection in mice (Table V); type: in vivo; conditions: sc, subcutaneous, two doses, dose protecting 50% of animals, read-out: ED50 Subcutaneous
Method: as §2

[34] = broth-dilution microtiter, Mycoplasma gallisepticum 36H, read-out: MIC

SMILES	MIC [2]	MIC [3]	MIC [4]	MIC [5]	MIC [6]	MIC [7]	MIC [9]	MIC [13]	MIC [14]	MIC [16]	MIC [18]	ED50 [19]	MIC [20]	MIC [22]	MIC [23]	MIC [24]	MIC [25]	MIC [28]	MIC [29]	MIC [30]	other results
CCC1OC(=O)CC(O)C(C)C(OC2OC(C)C(O)C(N(C)C)C2O)C(CC=O)CC(C)C(=O)C=CC(C)=CC1CN1CCCC2CCCCC21 (stereo not shown) [Compound 20, 23-deoxy-23-(decahydroquinolin-1-yl)-OMT]	< 0.048 µg/mL	1.56 µg/mL (≈ 2.17 µM)	> 0.048 µg/mL	0.78 µg/mL (≈ 1.08 µM)	1.56 µg/mL (≈ 2.17 µM)	0.39 µg/mL (≈ 0.542 µM)	0.78 µg/mL (≈ 1.08 µM)	0.78 µg/mL (≈ 1.08 µM)	6.25 µg/mL (≈ 8.69 µM)	0.78 µg/mL (≈ 1.08 µM)	0.78 µg/mL (≈ 1.08 µM)	5 mg/kg	0.25 µg/mL (≈ 0.348 µM)	0.125 µg/mL (≈ 0.174 µM)	0.25 µg/mL (≈ 0.348 µM)	1 µg/mL (≈ 1.39 µM)	1 µg/mL (≈ 1.39 µM)	0.25 µg/mL (≈ 0.348 µM)	0.125 µg/mL (≈ 0.174 µM)	0.25 µg/mL (≈ 0.348 µM)	MIC [1]: 0.03 µg/mL (≈ 0.0417 µM); MIC [8, 34]: 0.78 µg/mL (≈ 1.08 µM); MIC [10]: 0.39 µg/mL (≈ 0.542 µM); MIC [11]: 0.39 µg/mL (≈ 0.542 µM); MIC ([12]; Pasteurella, 22C): 3.12 µg/mL (≈ 4.34 µM); MIC ([15]; broth-dilution microtiter, Mycoplasma hyopneumoniae S5972, read-out: MIC): < 0.024 µg/mL; MIC ([17]; 40A): < 0.048 µg/mL; MIC [21]: 0.25 µg/mL (≈ 0.348 µM); MIC [26]: 0.25 µg/mL (≈ 0.348 µM); MIC ([27]; agar dilution, Staphylococcus aureus X400, methicillin-resistant strain, read-out: MIC): 0.5 µg/mL (≈ 0.695 µM); Number of Deaths/Number Treated [31]: 6/10 and 8/10; ED50 [32]: 77 mg/kg; ED50 [33]: 10 mg/kg
CCC1OC(=O)CC(O)C(C)C(OC2OC(C)C(O)C(N(C)C)C2O)C(CC=O)CC(C)C(=O)C=CC(C)=CC1CN1CC2(C)CC1CC(C)(C)C2 (stereo not shown) [Compound 23, 23-deoxy-23-(1,3,3-trimethyl-6-azabicyclo[3.2.1]octan-6-yl)-OMT]	< 0.048 µg/mL	1.56 µg/mL (≈ 2.13 µM)	< 0.048 µg/mL	0.39 µg/mL (≈ 0.532 µM)	1.56 µg/mL (≈ 2.13 µM)	0.78 µg/mL (≈ 1.06 µM)	1.56 µg/mL (≈ 2.13 µM)	0.78 µg/mL (≈ 1.06 µM)	12.5 µg/mL (≈ 17.1 µM)	0.78 µg/mL (≈ 1.06 µM)	1.56 µg/mL (≈ 2.13 µM)	3.6 mg/kg	0.5 µg/mL (≈ 0.682 µM)	0.25 µg/mL (≈ 0.341 µM)	0.5 µg/mL (≈ 0.682 µM)	1 µg/mL (≈ 1.36 µM)	2 µg/mL (≈ 2.73 µM)	0.5 µg/mL (≈ 0.682 µM)	0.125 µg/mL (≈ 0.171 µM)	0.5 µg/mL (≈ 0.682 µM)	MIC ([1]; read-out: MIC): 0.06 µg/mL (≈ 0.0819 µM); MIC ([8]; 36H): 3.12 µg/mL (≈ 4.26 µM); MIC [11]: 1.56 µg/mL (≈ 2.13 µM); MIC ([12]; broth-dilution microtiter, Pasteurella hemolytica 22C, read-out: MIC): 1.56 µg/mL (≈ 2.13 µM); MIC ([15]; S5972): 0.048 µg/mL (≈ 0.0655 µM); MIC ([17]; 40A): < 0.048 µg/mL; MIC [21]: 0.5 µg/mL (≈ 0.682 µM); MIC [26]: 0.5 µg/mL (≈ 0.682 µM); MIC ([27]; Staphylococcus aureus, X400): 0.5 µg/mL (≈ 0.682 µM); Number of Deaths/Number Treated [31]: 10/10; ED50 [32]: 100 mg/kg; ED50 [33]: 3.79 mg/kg
CCC1OC(=O)CC(O)C(C)C(OC2OC(C)C(O)C(N(C)C)C2O)C(CC=O)CC(C)C(=O)C=CC(C)=CC1CN1CCCC12CCCCC2 (stereo not shown) [Compound 31, 23-deoxy-23-(1-azaspiro[4.5]decan-1-yl)-OMT]	< 0.048 µg/mL	0.39 µg/mL (≈ 0.542 µM)	0.097 µg/mL (≈ 0.135 µM)	0.39 µg/mL (≈ 0.542 µM)	0.39 µg/mL (≈ 0.542 µM)	0.195 µg/mL (≈ 0.271 µM)	0.39 µg/mL (≈ 0.542 µM)	0.39 µg/mL (≈ 0.542 µM)	6.25 µg/mL (≈ 8.69 µM)	0.39 µg/mL (≈ 0.542 µM)	0.39 µg/mL (≈ 0.542 µM)	9.22 mg/kg	0.5 µg/mL (≈ 0.695 µM)	0.125 µg/mL (≈ 0.174 µM)	0.5 µg/mL (≈ 0.695 µM)	2 µg/mL (≈ 2.78 µM)	2 µg/mL (≈ 2.78 µM)	0.5 µg/mL (≈ 0.695 µM)	0.25 µg/mL (≈ 0.348 µM)	0.5 µg/mL (≈ 0.695 µM)	MIC [1]: 0.03 µg/mL (≈ 0.0417 µM); MIC [8, 34]: 50 µg/mL (≈ 69.5 µM); MIC [10]: 50 µg/mL (≈ 69.5 µM); MIC ([12]; Pasteurella, 22C): 0.78 µg/mL (≈ 1.08 µM); MIC ([15]; S5972): 0.097 µg/mL (≈ 0.135 µM); MIC ([17]; broth-dilution microtiter, Mycoplasma synoviae 40A, read-out: MIC): 0.195 µg/mL (≈ 0.271 µM); MIC ([21]; agar dilution, Streptococcus Group D 2041, read-out: MIC): 0.25 µg/mL (≈ 0.348 µM); MIC ([26]; agar dilution, Streptococcus Group D X66, read-out: MIC): 0.25 µg/mL (≈ 0.348 µM); MIC ([27]; Staphylococcus aureus, X400): 0.5 µg/mL (≈ 0.695 µM); Number of Deaths/Number Treated [31]: 0/10 and 3/10; ED50 [32]: 59.5 mg/kg; ED50 [33]: 2.15 mg/kg
